Source: US10245261B2, “Substituted indol-5-ol derivatives and their therapeutic applications” (NantBioScience, Inc., priority 2013, dated 2019)

Experiments:
Test in all cases: KinaseProfiler kinase assay
Type in all cases: biochemical
[1] = target: Abl(h) (Homo sapiens, UniProt P00519)
[2] = target: cSRC(h) (Homo sapiens, UniProt P12931)
Protocol: (§1) This example tests the inhibitory properties of representative compounds of the invention in c-Src kinase, Aurora-A kinase, Flt3 kinase, Ret kinase and TrkA Kinase assays (see, Daniele Fancelli et al, J. Med. Chem., 2006, 49 (24), pp 7247-7251). The KinaseProfiler™ Service Assay Protocols (Millipore) was used to test the kinase inhibiting activity of novel compounds from this invention. To do this, the buffer composition was as: 20 mM MOPS, 1 mM EDTA, 0.01% Brij-35, 5% Glycerol, 0.1% β-mercaptoethanol, 1 mg/mL BSA. Test compounds were initially dissolved in DMSO at the desired concentration, then serially diluted to the kinase assay buffer. In a final reaction volume of 25 μL, Aurora-A(h) (5-10 mU) is incubated with 8 mM MOPS pH 7.0, 0.2 mM EDTA, 200 μM LRRASLG (Kemptide), 10 mM MgAcetate and [γ^33P-ATP]. The reaction was initiated by the addition of the MgATP mix. After incubation for 40 minute at room temperature, the reaction was stopped by addition of 5 μL of a 3% phosphoric acid solution. 10 μL of the reaction was then spotted onto a P30 filtermat and washed three times for 5 minutes in 50 mM phosphoric acid and once in methanol prior to drying and scintillation counting. Wells containing substrate but no kinase and wells containing a phosphopeptide control were used to set 0% and 100% phosphorylation value, respectively.
(§2) The Kinase Hotspot℠ kinase assay was also used to test the compounds for IC50 or % inhibitions (Reaction Biology Corp.). Inhibitory IC50 values were determined by titration of compound at the optimal kinase concentration (Kinase EC50).

[3] = target: T1, Aurora-A(h) (Homo sapiens, UniProt O14965); conditions: read-out: % Inhibition @1 μM Auroro-A
T1 sequence (O14965 1-403): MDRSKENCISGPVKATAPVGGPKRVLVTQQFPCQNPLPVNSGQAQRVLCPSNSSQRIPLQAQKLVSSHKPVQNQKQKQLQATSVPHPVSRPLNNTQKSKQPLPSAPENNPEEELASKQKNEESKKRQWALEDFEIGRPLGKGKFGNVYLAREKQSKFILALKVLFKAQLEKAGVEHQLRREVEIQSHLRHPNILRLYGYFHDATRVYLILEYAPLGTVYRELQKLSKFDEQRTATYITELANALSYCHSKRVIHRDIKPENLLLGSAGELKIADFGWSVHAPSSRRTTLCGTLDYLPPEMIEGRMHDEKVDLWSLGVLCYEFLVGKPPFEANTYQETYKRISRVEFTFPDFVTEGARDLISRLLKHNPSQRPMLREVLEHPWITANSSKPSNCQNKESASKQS
Protocol: as §1, §2

[4] = target: Ret(h) (Homo sapiens, UniProt P07949)
Protocol: as §1, §2

[5] = target: T2, Flt3(h) (Homo sapiens, UniProt P36888)
T2 sequence (P36888 27-993): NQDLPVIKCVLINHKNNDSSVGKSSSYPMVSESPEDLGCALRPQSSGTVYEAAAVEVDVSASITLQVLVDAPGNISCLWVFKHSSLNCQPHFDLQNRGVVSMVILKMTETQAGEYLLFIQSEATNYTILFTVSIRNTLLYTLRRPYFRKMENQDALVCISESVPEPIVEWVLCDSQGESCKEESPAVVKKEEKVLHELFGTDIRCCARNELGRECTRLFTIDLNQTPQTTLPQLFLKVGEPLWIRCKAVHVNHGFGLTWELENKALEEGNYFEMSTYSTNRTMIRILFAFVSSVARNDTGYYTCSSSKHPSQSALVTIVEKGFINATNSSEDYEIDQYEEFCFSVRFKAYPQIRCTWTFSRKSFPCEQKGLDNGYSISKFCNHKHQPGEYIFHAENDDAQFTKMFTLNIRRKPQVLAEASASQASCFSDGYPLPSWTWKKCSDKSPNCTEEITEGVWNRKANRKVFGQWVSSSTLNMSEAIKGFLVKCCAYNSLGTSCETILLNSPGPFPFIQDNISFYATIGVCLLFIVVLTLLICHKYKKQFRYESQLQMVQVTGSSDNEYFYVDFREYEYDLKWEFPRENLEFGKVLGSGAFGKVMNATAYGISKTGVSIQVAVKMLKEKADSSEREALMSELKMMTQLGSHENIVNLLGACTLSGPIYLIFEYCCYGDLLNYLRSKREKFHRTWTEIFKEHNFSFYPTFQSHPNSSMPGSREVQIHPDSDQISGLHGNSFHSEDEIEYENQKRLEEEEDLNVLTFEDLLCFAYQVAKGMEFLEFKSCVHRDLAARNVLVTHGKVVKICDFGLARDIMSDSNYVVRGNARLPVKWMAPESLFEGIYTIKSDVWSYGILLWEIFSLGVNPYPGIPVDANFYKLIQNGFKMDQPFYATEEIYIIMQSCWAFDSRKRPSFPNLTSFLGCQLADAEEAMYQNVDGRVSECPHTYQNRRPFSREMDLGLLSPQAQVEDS
Protocol: as §1, §2

[6] = target: KDR(h) (Homo sapiens, UniProt P35968)
Sequence of KDR(h) (P35968 20-1356): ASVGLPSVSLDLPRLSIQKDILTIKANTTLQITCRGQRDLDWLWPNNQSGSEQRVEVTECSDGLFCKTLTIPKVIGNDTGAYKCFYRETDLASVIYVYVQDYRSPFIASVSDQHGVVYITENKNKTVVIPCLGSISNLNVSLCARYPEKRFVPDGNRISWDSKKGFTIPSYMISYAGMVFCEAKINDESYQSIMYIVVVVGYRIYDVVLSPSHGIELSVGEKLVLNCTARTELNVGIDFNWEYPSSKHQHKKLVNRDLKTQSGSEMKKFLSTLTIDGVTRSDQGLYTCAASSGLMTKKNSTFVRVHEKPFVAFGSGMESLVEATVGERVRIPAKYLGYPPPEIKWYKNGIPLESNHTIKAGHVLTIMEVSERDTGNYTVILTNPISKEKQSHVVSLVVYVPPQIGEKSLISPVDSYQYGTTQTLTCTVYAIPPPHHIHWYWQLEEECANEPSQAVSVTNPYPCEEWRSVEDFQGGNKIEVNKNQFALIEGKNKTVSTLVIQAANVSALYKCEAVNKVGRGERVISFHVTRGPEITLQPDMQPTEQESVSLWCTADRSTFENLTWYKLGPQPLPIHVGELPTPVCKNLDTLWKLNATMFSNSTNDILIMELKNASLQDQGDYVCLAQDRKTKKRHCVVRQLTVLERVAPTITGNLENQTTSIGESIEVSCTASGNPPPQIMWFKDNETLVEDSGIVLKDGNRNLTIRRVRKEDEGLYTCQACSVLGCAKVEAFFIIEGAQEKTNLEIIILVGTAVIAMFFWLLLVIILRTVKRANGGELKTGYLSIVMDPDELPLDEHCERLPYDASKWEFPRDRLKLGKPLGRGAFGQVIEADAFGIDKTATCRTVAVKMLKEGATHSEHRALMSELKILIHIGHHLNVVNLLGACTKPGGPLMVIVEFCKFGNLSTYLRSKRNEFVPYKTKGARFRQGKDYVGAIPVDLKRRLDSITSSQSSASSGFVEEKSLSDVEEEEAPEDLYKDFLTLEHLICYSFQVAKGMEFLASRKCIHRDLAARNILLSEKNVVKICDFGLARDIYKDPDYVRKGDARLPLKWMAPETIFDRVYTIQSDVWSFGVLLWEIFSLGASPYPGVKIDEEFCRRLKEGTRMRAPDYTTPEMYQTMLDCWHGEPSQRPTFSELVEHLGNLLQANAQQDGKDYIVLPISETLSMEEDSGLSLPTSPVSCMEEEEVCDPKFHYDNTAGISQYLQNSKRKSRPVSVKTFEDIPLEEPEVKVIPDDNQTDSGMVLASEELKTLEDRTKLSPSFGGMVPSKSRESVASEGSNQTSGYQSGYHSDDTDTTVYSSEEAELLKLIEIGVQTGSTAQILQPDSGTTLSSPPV

Sequence of cSRC(h) (P12931 whole entry): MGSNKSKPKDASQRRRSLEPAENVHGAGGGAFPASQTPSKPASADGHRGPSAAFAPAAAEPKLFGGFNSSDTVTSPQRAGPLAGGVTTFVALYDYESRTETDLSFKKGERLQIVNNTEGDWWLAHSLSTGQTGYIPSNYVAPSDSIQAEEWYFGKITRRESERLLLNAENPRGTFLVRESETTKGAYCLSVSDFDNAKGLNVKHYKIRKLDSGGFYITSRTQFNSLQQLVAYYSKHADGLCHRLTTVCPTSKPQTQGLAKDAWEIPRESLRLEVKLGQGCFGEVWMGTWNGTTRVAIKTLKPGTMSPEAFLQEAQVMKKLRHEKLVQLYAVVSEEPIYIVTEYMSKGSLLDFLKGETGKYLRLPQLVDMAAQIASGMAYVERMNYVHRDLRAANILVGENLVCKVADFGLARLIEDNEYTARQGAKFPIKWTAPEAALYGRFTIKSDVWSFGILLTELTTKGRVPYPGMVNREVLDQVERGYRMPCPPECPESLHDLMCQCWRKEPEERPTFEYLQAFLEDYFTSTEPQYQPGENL
Sequence of Abl(h) (P00519 whole entry): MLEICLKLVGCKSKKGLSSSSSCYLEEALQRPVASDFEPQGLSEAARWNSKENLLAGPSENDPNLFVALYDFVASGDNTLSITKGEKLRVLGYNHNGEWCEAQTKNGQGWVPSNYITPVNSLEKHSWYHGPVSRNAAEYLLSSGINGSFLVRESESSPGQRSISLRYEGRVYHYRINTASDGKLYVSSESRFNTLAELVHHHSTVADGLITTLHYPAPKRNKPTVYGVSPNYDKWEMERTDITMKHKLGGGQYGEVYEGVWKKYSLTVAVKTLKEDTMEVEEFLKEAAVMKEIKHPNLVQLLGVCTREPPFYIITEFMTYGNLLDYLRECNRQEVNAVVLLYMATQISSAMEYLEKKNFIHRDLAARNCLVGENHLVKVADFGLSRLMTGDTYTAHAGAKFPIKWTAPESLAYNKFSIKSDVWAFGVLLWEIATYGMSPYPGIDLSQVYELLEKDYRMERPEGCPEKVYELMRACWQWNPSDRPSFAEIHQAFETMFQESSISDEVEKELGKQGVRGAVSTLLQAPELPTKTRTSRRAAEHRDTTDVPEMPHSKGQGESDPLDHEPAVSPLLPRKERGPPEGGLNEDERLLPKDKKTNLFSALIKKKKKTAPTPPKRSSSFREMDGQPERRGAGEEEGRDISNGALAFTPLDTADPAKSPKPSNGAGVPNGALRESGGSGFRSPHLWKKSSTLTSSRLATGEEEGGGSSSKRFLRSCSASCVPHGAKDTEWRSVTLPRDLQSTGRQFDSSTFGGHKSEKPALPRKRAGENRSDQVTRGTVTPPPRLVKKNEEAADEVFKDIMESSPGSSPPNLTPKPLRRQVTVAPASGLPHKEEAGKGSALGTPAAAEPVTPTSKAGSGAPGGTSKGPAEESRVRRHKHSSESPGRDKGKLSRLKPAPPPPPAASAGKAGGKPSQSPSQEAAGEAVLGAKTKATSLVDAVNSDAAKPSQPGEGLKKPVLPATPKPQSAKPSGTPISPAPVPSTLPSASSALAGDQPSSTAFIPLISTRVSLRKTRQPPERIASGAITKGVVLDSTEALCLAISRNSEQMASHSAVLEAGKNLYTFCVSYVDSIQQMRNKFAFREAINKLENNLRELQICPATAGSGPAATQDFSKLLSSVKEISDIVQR
Sequence of Ret(h) (P07949 29-1114): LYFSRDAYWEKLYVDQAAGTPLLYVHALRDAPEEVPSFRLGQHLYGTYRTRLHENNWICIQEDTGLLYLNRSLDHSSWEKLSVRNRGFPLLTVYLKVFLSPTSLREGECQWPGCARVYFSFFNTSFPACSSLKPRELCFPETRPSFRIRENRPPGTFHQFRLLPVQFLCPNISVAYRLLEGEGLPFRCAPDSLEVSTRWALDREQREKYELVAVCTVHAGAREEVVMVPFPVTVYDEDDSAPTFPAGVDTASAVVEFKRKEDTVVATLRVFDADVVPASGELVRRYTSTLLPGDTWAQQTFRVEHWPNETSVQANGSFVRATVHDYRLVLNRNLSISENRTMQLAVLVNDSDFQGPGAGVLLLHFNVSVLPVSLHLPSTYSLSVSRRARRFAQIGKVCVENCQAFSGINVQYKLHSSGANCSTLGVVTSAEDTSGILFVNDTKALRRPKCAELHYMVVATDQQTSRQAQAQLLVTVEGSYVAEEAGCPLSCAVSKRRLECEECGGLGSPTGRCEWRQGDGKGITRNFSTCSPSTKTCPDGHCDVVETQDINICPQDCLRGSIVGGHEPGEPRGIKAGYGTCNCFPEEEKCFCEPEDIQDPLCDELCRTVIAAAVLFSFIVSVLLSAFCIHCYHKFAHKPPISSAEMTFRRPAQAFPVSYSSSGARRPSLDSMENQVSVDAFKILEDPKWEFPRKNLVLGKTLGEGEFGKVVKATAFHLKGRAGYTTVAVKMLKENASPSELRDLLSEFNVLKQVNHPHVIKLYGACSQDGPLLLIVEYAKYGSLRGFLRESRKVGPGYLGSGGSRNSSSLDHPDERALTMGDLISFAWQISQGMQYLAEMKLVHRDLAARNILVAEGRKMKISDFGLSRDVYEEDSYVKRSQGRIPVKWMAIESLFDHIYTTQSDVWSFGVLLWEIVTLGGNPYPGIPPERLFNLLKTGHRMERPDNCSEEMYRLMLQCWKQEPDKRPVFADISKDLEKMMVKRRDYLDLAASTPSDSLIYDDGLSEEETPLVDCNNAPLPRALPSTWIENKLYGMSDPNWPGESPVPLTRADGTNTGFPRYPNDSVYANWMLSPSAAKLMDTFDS

With `C/C=C/c1cc(Nc2cc(N3CCC(N(CC)CC)C3)nc(Oc3ccc4[nH]c(C)cc4c3F)n2)n[nH]1` (stereo not drawn) [Compound 62] the inhibition at 1 µM [1] was 111%, the inhibition at 1 µM [2] was 101% and the inhibition at 1 µM [3] was 102%. The inhibition at 1 µM [4] was 102%, the inhibition at 1 µM [5] was 99% and the inhibition at 1 µM [6] was 96%.

With `C/C=C/c1cc(Nc2cc(N3CCOCC3)nc(Oc3ccc4[nH]c(C)cc4c3F)n2)n[nH]1` [Compound 67] the inhibition at 1 µM [1] was 112%, the inhibition at 1 µM [2] was 99% and the inhibition at 1 µM [3] was 99%. For the same compound, the inhibition at 1 µM [4] was 100%, the inhibition at 1 µM [5] was 100% and the inhibition at 1 µM [6] was 91%.

For `C/C=C/c1cc(Nc2cc(N3CCN(CCF)CC3)nc(Oc3ccc4[nH]c(C)cc4c3F)n2)n[nH]1` [Compound 74], the inhibition at 1 µM [1] was 111%, the inhibition at 1 µM [2] was 100% and the inhibition at 1 µM [3] was 99%. The inhibition at 1 µM [4] was 102%, the inhibition at 1 µM [5] was 100% and the inhibition at 1 µM [6] was 96%.

With `Cc1cc2c(F)c(Oc3nc(Nc4cc(C5CC5)[nH]n4)cc(N4CCN(C)CC4)n3)cc(F)c2[nH]1` [Compound 81] the inhibition at 1 µM [1] was 110%, the inhibition at 1 µM [2] was 99% and the inhibition at 1 µM [3] was 99%. For the same compound, the inhibition at 1 µM [4] was 99%, the inhibition at 1 µM [5] was 101% and the inhibition at 1 µM [6] was 96%.

For `Cc1cc2c(F)c(Oc3nc(Nc4cc(C5CC5)[nH]n4)cc(N4CCOCC4)n3)cc(F)c2[nH]1` [Compound 84], the inhibition at 1 µM [1] was 103%, the inhibition at 1 µM [2] was 100% and the inhibition at 1 µM [3] was 98%. For the same compound, the inhibition at 1 µM [4] was 100%, the inhibition at 1 µM [5] was 100% and the inhibition at 1 µM [6] was 93%.

In the case of `C/C=C/c1cc(Nc2cc(N3CCN(C)CC3)nc(Oc3cc(F)c4[nH]c(C)cc4c3F)n2)n[nH]1` [Compound 87], the inhibition at 1 µM [1] is reported as 112%, the inhibition at 1 µM [2] is reported as 95% and the inhibition at 1 µM [3] is reported as 99%. For the same compound, the inhibition at 1 µM [4] was 83%, the inhibition at 1 µM [5] was 100% and the inhibition at 1 µM [6] was 95%.

Work on `C/C=C/c1cc(Nc2cc(N3CCOCC3)nc(Oc3cc(F)c4[nH]c(C)cc4c3F)n2)n[nH]1` [Compound 89] yielded an inhibition at 1 µM [1] of 112%, an inhibition at 1 µM [2] of 100% and an inhibition at 1 µM [3] of 100%. The inhibition at 1 µM [4] was 99%, the inhibition at 1 µM [5] was 100% and the inhibition at 1 µM [6] was 96%.

Work on `C/C=C/c1cc(Nc2cc(N3CCC(O)C3)nc(Oc3cc(F)c4[nH]c(C)cc4c3F)n2)n[nH]1` (stereo not drawn) [Compound 92] yielded an inhibition at 1 µM [1] of 111%, an inhibition at 1 µM [2] of 100% and an inhibition at 1 µM [3] of 100%. The inhibition at 1 µM [4] was 102%, the inhibition at 1 µM [5] was 100% and the inhibition at 1 µM [6] was 96%.

For `C/C=C/c1cc(Nc2cc(N3CCC(OC)C3)nc(Oc3cc(F)c4[nH]c(C)cc4c3F)n2)n[nH]1` (stereo not drawn) [Compound 93], the inhibition at 1 µM [1] was 111%, the inhibition at 1 µM [2] was 101% and the inhibition at 1 µM [3] was 102%. It also gave an inhibition at 1 µM [4] of 102%, an inhibition at 1 µM [5] of 100% and an inhibition at 1 µM [6] of 95%.

Compound `C/C=C/c1cc(Nc2cc(N3CCC(N(CC)CC)C3)nc(Oc3cc(F)c4[nH]c(C)cc4c3F)n2)n[nH]1` (stereo not drawn) [Compound 94] has an inhibition at 1 µM [1] of 111%, an inhibition at 1 µM [2] of 100% and an inhibition at 1 µM [3] of 100%. It also gave an inhibition at 1 µM [4] of 102%, an inhibition at 1 µM [5] of 99% and an inhibition at 1 µM [6] of 96%.

For `C/C=C/c1cc(Nc2cc(N3CCC(O)CC3)nc(Oc3cc(F)c4[nH]c(C)cc4c3F)n2)n[nH]1` [Compound 95], the inhibition at 1 µM [1] was 110%, the inhibition at 1 µM [2] was 100% and the inhibition at 1 µM [3] was 100%. For the same compound, the inhibition at 1 µM [4] was 101%, the inhibition at 1 µM [5] was 100% and the inhibition at 1 µM [6] was 96%.
